Data on one compound can be found in patent US20180256541A1, “COMPOSITIONS HAVING ANTI-FUGETACTIC PROPERTIES FOR TREATMENT OF CANCER” (THE GENERAL HOSPITAL CORPORATION DBA MASSACHUSETTS GENERAL …, priority 2015, published 2018).

Test [1] relates to human CD3+ T cells. The settings on record: T cells pre-incubated with 0.01 μM to 10 mM AMD3100; tumor cells in Transwell; harvest after 3 h. As for the experimental part:
For quantitative transmigration assays, purified human CD3^+ T cells (approximately 2×10^4 cells) are added to the upper chamber of a Transwell® insert in each well, to a total volume of 150 μl of Iscove's modified medium.
To determine the anti-fugetactic concentration of AMD3100, the T cells are incubated with 0.01 μM to 10 mM AMD3100 prior to addition to the chamber.
Cells are harvested from the lower chamber after 3 h, and cell counts are performed using a hemocytometer.

Test [2] concerns human CD3+ T cells. The settings on record: CI of 1.0 is the control, triplicate wells. On the procedure: Freshly prepared and purified human CD3^+ T cells were prepared from healthy donor peripheral blood. 20,000 T cells were loaded into the upper chamber of the Transwell in control, chemotactic or fugetactic settings with AMD3100 at concentrations between 0.1 μM and 10 μM. Migrated cells were counted in the lower chamber and migration quantitated as previously described. Vianello et al. The Journal of Immunology, 2006, 176: 2902-2914; Righi et al., Cancer Res.; 71(16); 5522-34, each of which is incorporated herein in its entirety.
We saw clear evidence of binary or bimodal chemotactic (FIG. 1; CI 2.3 at 1 μM) and fugetactic (FIG. 2; CI=1.6 at 0.1 μM) responses of human CD3+ T cells to AMD3100 (where a CI or chemotactic index of 1.0 is the control). All wells were run in triplicate.

For the compound `c1cc(CN2CCCNCCNCCCNCC2)ccc1CN1CCCNCCNCCCNCC1` [AMD3100, 1,1′-[1,4-phenylenebis(methylene)]bis [1,4,8,11-tetraazacyclotetradecane]], the “effect on T cell migration (anti-fugetactic at lower, fugetactic at higher concentrations)” value in the test with human CD3+ T cells [1] is “bimodal effect”. In addition, the “CI (chemotactic index), chemotactic response” value in the test with human CD3+ T cells [2] (chemotactic setting, AMD3100 at 1 μM, FIG. 1) amounted to 2.3. Moreover, in the test on human CD3+ T cells [2] (fugetactic setting, AMD3100 at 0.1 μM, FIG. 2), the “CI (chemotactic index), fugetactic response” value is given as 1.6.
